As a reminder, the melting point is the temperature, or range, at which the solid turns liquid.

A value given as a limit tells only on which side of the number the result lay.

`COc1cc(CCNC(=O)N(C)O)cc(OC)c1OC` yielded a melting point of 100 to 102 °C.
In turn, `O=c1ccn(-c2cccc(C(F)(F)F)c2)nc1-c1ccn[nH]1` registered a melting point of 192 to 194 °C.
For `NC(=S)c1sccc1N` the value was 98 to 99 °C; for `C=CCNC(=NC#N)NCC=C`, 66.5 to 67 °C.
For the molecule `Cc1c(Br)cc2[nH]c(=O)c(=O)[nH]c2c1[N+](=O)[O-]`, the melting point is > 340 °C.
The molecule `CN(C)C(=O)Nc1ccc(Cl)c(N)n1` displayed a melting point of 139 to 141 °C.
The molecule `COc1ccc(C(=O)c2ccccc2)cc1COc1ccc(Cl)cc1` yielded a melting point of 103 °C.
Turning to `COCCN1CCn2c1nc(C(=O)NCc1ccc(F)cc1)c(O)c2=O`, the melting point was 166 °C.
With `O=C(O)c1ccc2oc(-c3ccc(C(F)(F)F)nc3)cc2c1` the figure was > 260 °C.
For `CCOC(=O)c1sc(Cl)nc1-c1ccccc1` the value was 56 to 57 °C.
With `CCOC(=O)c1cccc2c1Nc1ccc(C(=O)c3ccccc3)cc1N2` the figure was 175 to 177 °C; with `CCCCCCCCCCCCCCCCn1c(-c2ccc(Cl)c(N)c2)nc2ccccc21`, 162 to 163 °C.
Take `O=Cc1nn(-c2c(Cl)cc(C(F)(F)F)cc2Cl)cc1SC(F)(F)F`: the melting point fell in the range of 79 to 81 °C.
With `CCOC(=O)CNCP(=O)(O)O` the figure was > 220 °C; with `N#CC1=C(C#N)Sc2nc3cc([N+](=O)[O-])c([N+](=O)[O-])cc3nc2S1`, 230 to 233 °C; with `O=C(CCCCCN1CCN(c2ccc3c(c2)CCC3)CC1)N1Cc2ccccc2C1`, 131 °C.
Molecule `CCn1c(C(O)(c2cccc(F)c2)c2cccc(F)c2)nc(-c2ccncc2)c1-c1ccc(Cl)cc1` displayed a melting point of 225 to 227 °C.
With `COc1ccc(Nc2ccc(OCc3ccccc3)cc2)c(CO)c1` the figure was 100 to 101 °C; with `Brc1ccccc1C1=NOC2(N3CCCC3)CCCCC12` (stereo not given), 134 °C.
Molecule `COc1cc(COc2ccc3nc(NC(=O)OCCN(C)C)cn3n2)cc(OC)c1OC` showed a melting point of 185 to 186 °C.
For `O=c1[nH]c(-c2cc(C(F)(F)F)cc(C(F)(F)F)c2)nn1-c1cc(Cl)ccc1O`, the melting point is 235 to 236 °C.
With `Cc1oncc1-c1cccc(OC2SCC(O)C(O)C2O)c1` (stereo not given) the figure was 180 °C; with `CCCOC(=O)c1cc(-n2c(OC)nc(C(F)(F)F)c(F)c2=O)c(F)cc1Cl`, 76 to 78 °C.
For `CCc1noc(-c2ncn(-c3cccnc3)c2COC)n1` the value was 70 to 72 °C; for `COc1ccc(-c2ccc(C(N)=O)cc2)cc1Br`, 246 to 250 °C.
Turning to `Cc1ccc2c(c1Cl)C(=O)N(C1(C(N)=O)CCCCC1)C2=O`, the melting point is 192 to 208 °C.
With `COC(=O)c1c(C(=O)OC)c(-c2nccnc2C)n(NS(=O)(=O)c2ccc(C)cc2)c1C` the figure was 155 to 156 °C; with `CCOC(=O)COc1ccc(-c2nc(-c3ccc(C)cc3)nc(-c3ccc(C)cc3)n2)c(O)c1`, 166 to 167 °C.
With `Cc1ccccc1OS(=O)(=O)c1cc(S(N)(=O)=O)c(Oc2ccccc2)cc1Cl` the figure was 157 to 159 °C.
`CCOC(=O)C1C(=O)NCC1CCc1ccc(C(=O)OCC(C)C)cc1` (stereo not given) showed a melting point of 98 to 104 °C.
With `CC(C)N(C)c1nc(Nc2cccc(NS(C)(=O)=O)c2)nc2[nH]cnc12` the figure was 144 to 147 °C; with `COC(C)CC(=O)NC1CCC(CCN2CCN(c3nccc4c3OCC4)CC2)CC1` (racemic), 168 °C; with `Cc1c(-c2cccnc2)n(CCCCCC(=O)O)c2ccccc12`, 111 to 113 °C.
`Cc1ccccc1N1CCN(Cc2c[nH]c3ncccc23)CC1`: the melting point fell in the range of 174 to 176 °C.
For `OCCCCn1ccc(NC(=S)Nc2ccccc2)n1`, the melting point was 112 to 117 °C.
For `N#CC1CN1C(=O)CNC(N)=O` (stereo not given) the value was 110 to 114 °C; for `O=[N+]([O-])CS(=O)(=O)c1c[nH]c2ccccc12`, 181 to 182 °C; for `CC1N=C(N(C)N)NN=C1c1ccccc1` (stereo not given), 140 to 141 °C.
In turn, `CNC(=O)COC1C(O)C(CO)OC(Oc2ccc(N)cc2)C1O` (stereo not given) displayed a melting point of 239 °C.
`CC1(C)C=Cc2cc(C(=O)NCCCCc3ccccc3)ccc2O1` had a melting point of 65 to 70 °C.
With `OCc1nc2cccnc2n1Cc1ccc(-c2ccccc2)cc1` the figure was 163 to 165 °C.
With `O=C(O)C(O)c1cccc(COc2ccccc2Cl)c1COc1ccccc1Cl` (stereo not given) the figure was 101 to 103 °C.
For `O=c1cc2c(nn1-c1ccc(Cl)cc1)-c1cnccc1CC2` the value was 166 to 168 °C; for `CSc1ncc(Cc2cnc3ccccc3c2)c(=O)[nH]1`, 220 to 221 °C; for `CCn1c(=O)c(C(=O)O)nc2ccc(F)cc21`, 162 to 164 °C.
Molecule `CN(C)c1ccc(C(=O)N2CCC(Nc3nc(Nc4cccc(C(F)(F)F)c4)nc(OCC(F)(F)F)n3)CC2)cc1` came in with a melting point of 123 to 125 °C.
With `Nc1nnc(C(=O)OCc2ccccc2)s1` the figure was 198 to 200 °C.
On to `COc1ccc(-c2[nH]nc3c2C(=O)c2c(NC(=O)Cc4ccc(NC(=O)CN(C)C)cc4)cccc2-3)cc1`, for which the melting point is > 300 °C.
`CN1CCN(Cc2ccc(NC(=O)C#Cc3ccc(-c4ccc(Cl)cc4)cc3)cc2)CC1` yielded a melting point of 182 to 185 °C.
As for `CCOC(=O)Cn1c(=O)sc2cc(N)c(Cl)cc21`, the melting point is 154 to 160 °C.
With `c1ccc2c(c1)Sc1ccccc1N2c1ccc(-n2ccnc2-c2nccn2-c2ccc(N3c4ccccc4Sc4ccccc43)cc2)cc1` the figure was 227 to 232 °C; with `Cn1c2ccc(Br)cc2c2cc(Br)cc([N+](=O)[O-])c21`, 221 °C.
As for `COc1ccccc1Oc1c(NS(=O)(=O)c2ccc(C)cn2)nc(N2CCOCC2)nc1OCCO`, the melting point was 195 to 196 °C.
On to `CC(C)(O)Cn1c(CCO)nc2c(N)nc3cccnc3c21`, for which the melting point was 194 to 195 °C.
With `CCOC(=O)c1cnc(-c2cc3cccc([N+](=O)[O-])c3n2COC)s1` the figure was 92 to 93 °C; with `COCC(=O)NCc1cccc2c1CN(C1CCC(=O)NC1=O)C2=O` (stereo not given), 232 to 234 °C.
`CC(C)(C)C(NC(=O)c1cccc(Br)c1)Nc1c(Nc2cccnc2)c(=O)c1=O` (stereo not given) yielded a melting point of 244 to 245 °C.
Molecule `CSc1ccc(NC(=O)C(C#N)C(=O)c2cccn2C)cc1` (stereo not given) came in with a melting point of 167 to 168 °C.
`COC(=O)c1cccc(-c2cn(C)cc(-c3ccc(C)cc3)c2=O)c1`: the melting point fell in the range of 85 to 88 °C.
For `COCc1c(C(=O)OC)ncc2[nH]c3ccccc3c12` the value was 134 to 135 °C.
Molecule `N#Cc1ccc(Cl)cc1OC[C@@H]1CO1` yielded a melting point of 85 to 86 °C.
Turning to `O=C(CCl)c1ccc(-c2ccc(S(=O)(=O)C(F)F)cc2)cc1`, the melting point fell in the range of 157 to 159 °C.
As to `Cn1cc(CS(C)=O)c(=O)c2ccc(C(F)(F)F)cc21` (stereo not given), the melting point lay within 208 to 210 °C.
As to `Nc1ncnc(OCc2ccccc2)c1[N+](=O)[O-]`, the melting point was 149 to 150 °C.
`CCOC(=O)c1c(C)n(C)cc(-c2ccc(Cl)cc2)c1=O` came in with a melting point of 200 to 201 °C.
For the molecule `O=C(NCc1ccccc1-c1ccccc1C(=O)NCCc1ccccn1)OCc1ccccc1`, the melting point worked out at 140 °C.
`NC(=O)CC[C@H](NC(=O)c1ccc(OCc2ccccc2)cc1OCc1ccccc1)C(=O)N1CCN(Cc2ccccc2)CC1`: the melting point was in the range of 133 to 135 °C.
With `CN(C)c1ccc(C(=N)NC=Cc2ccc([N+](=O)[O-])cc2)cc1` the figure was 191 to 193 °C.
For `CC(=S)N(C)Cc1ccc(F)cc1` the value was 99 to 104 °C.
For `CCOC(=O)C=CC=Cc1ccc(-n2ccnc2)cc1` the value was 126 to 127 °C; for `COc1ccc2c(c1)N(CCCCl)c1cccc(S(C)(=O)=O)c1S2`, 122 to 124 °C.
`COc1cc(C(Cn2ccnc2)Sc2ccc(C(=O)O)cc2)cc(OC)c1OC` (stereo not given) gave a melting point of 94 to 97 °C.
For `O=C(NC1CC=CC1)OCc1ccccc1` the value was 56 to 57 °C; for `NC(=O)N(O)C[C@H]1C[C@@H](c2ccc(C(F)(F)F)cc2)C1`, 144 to 146 °C; for `C#Cc1cc(C(=O)NC(C)CCCc2cccnc2)ccc1-c1ccc(OC)c(OC)c1` (stereo not given), 135 to 137 °C.
For `CN(C)C(=O)Cc1csc(NC(=O)C(Cc2ccccc2)NC(=O)OC(C)(C)C)n1` (stereo not given) the value was 139 to 140 °C; for `CCOC(=O)C(C(=O)OC(c1ccccc1)c1ccccc1)C(=O)c1cc(F)c(OC)nc1Nc1ccc(F)cc1F` (stereo not given), 130 to 131 °C; for `CON(C)C(=O)NN(C(=O)Cl)c1cccc2c1OC(C)C2` (stereo not given), 91 to 93 °C.
For `CNC(=O)NCc1cccc(-c2csc(N=C(N)N)n2)n1` the value was 205 to 206 °C; for `Cc1c(NC(=O)OCc2ccccc2)cccc1C(C[N+](=O)[O-])c1c[nH]c2cc(N3CCOCC3)ccc12` (stereo not given), 137 °C.
In turn, `COC(=O)C(=CNC1CC1)C(=O)C=Cc1ccc(OC)cc1` yielded a melting point of 125 to 127 °C.
`Fc1cccc(C=Cc2nccc3ccccc23)c1` gave a melting point of 89 to 99 °C.
In the case of `CC(=O)OCc1cc(=O)n2c(ccn2-c2ccccc2)n1`, the melting point lay within 172 to 175 °C.
For the molecule `COC(=O)c1nc(-c2sccc2[N+](=O)[O-])n(C)c(=O)c1OC(=O)C(C)(C)C`, the melting point fell in the range of 159 to 161 °C.
`COc1ccc(N2CCC(c3c(N)nc(N)[nH]c3=O)CC2)cc1`: the melting point was 308 °C.
In the case of `OCc1c[nH]c(-c2ccc(OCc3ccccc3)cc2)n1`, the melting point fell in the range of 183 to 185 °C.
Turning to `COC(=O)c1nc(NC(=O)CCCOc2cccc(CN3CCCCC3)c2)n(C)n1`, the melting point lay in the range of 108 to 110 °C.
The molecule `Clc1ccc(CN2CCN(CCN3CCCCC3)CC2c2ccccc2)cc1` (stereo not given) had a melting point of 85 to 87 °C.
For `Cc1ccc(S(=O)(=O)N[C@@H]2CCCC[C@H]2N)cc1` (relative stereo) the value was 93 to 95 °C; for `OCCN1C2C=C(c3ccc4ccccc4c3)CC1CC2` (stereo not given), 113 to 114 °C.
